Assay results as given in ChEMBL document CHEMBL5608246, “Membrane-Targeting Amphiphilic Honokiol Derivatives Containing an Oxazole Moiety as Potential Antibacterials against Methicillin-Resistant Staphylococcus aureus” (J Med Chem, 2024).
The source made the active and inactive calls. No cut-off for these calls is given here.

Key:
[1] = Toxicity in Kunming mouse assessed as change in red blood cell counts at 20 mg/kg, sc measured after 24 hrs; assay type: organism-based; conditions: in vivo
[2] = test system: Staphylococcus aureus; assay: Antibacterial activity against methicillin resistant Staphylococcus aureus 20 incubated for 16 to 18 hrs in presence of 32 ug/ml phosphatidylglycerol by checkerboard broth dilution method; assay type: functional; conditions: time 16-18 hrs
[3] = test system: Staphylococcus aureus; assay: Antibacterial activity against methicillin resistant Staphylococcus aureus M14 incubated for 16 to 18 hrs by broth dilution method; assay type: functional; conditions: time 16-18 hrs
[4] = Toxicity in Kunming mouse assessed as change in hemoglobin level at 20 mg/kg, sc measured after 24 hrs; assay type: organism-based; conditions: in vivo
[5] = Toxicity in Kunming mouse assessed as heart abnormalities at 10 mg/kg, sc measured after 24 hrs; assay type: organism-based; conditions: in vivo
[6] = test system: Staphylococcus aureus; assay: Antibacterial activity against methicillin resistant Staphylococcus aureus 20 infected in Kunming mouse skin abscess model assessed as appearance of smooth back skin at 10 mg/kg, sc measured after 2 hrs; assay type: functional, organism-based
[7] = test system: Staphylococcus aureus; assay: Antibacterial activity against methicillin resistant Staphylococcus aureus 20 incubated for 16 to 18 hrs in presence of 2 to 64 ug/ml phosphatidylethanolamine by checkerboard broth dilution method; assay type: functional, organism-based; conditions: time 16-18 hrs
[8] = test system: Staphylococcus aureus; assay: Antibacterial activity against methicillin resistant Staphylococcus aureus 20 infected in Kunming mouse skin abscess model assessed as reduction in inflammatory cell infiltration in dermal layer at 10 mg/kg, sc measured after 2 hrs; assay type: functional, organism-based
[9] = test system: Staphylococcus aureus; assay: Antibacterial activity against methicillin resistant Staphylococcus aureus 20 infected in Kunming mouse skin abscess model assessed as reduction in severity of skin abscess at 5 mg/kg, sc measured after 2 hrs; assay type: functional, organism-based

C=CCc1cc(-c2ccc(OCCC[N+](C)(C)CC(=O)NCCCC)c(CC=C)c2)c2oc(-c3c(Cl)cccc3Cl)nc2c1.[Br-]
Activity [1]: Non-Toxic | MIC [2]: 32 µg/mL | MIC [3]: 2 µg/mL | Activity [4]: Non-Toxic | Activity [5]: Non-Toxic | Activity [6]: Active | Activity [7]: Active | Activity [8]: Active | Activity [9]: Active
